In patent US7378080B2, “Methods for identifying compounds for motion sickness, vertigo and other disorders related to balance and the perception of gravity” (Neurosciences Research Foundation, Inc., priority 1999, dated 2008):

System: Canton-S flies
Experiment: Geotaxis maze assay of Drosophila
Assay type: in vivo, Drosophila melanogaster
Method: These strains and a standard laboratory wild-type strain (Canton-S, obtained from the Bloomington Drosophila Stock Center, Indiana University at Bloomington) were then tested in a geotaxis maze constructed according to the design of Hirsch (J. Comp. Physiol. Psychol. 52:304-308 (1959)) as modified by McMillan and McGuire (Behav. Genet. 22:557-573 (1992)), shown in FIG. 1. The geotaxis maze was fashioned from plexiglass and the maze chambers were hollowed out as semi-circular depressions in the slab, such that when the two slabs were bolted together a circular tube was formed in maze. This design thus made it possible to observe the entire time course of the assay. Additionally, this maze is easy to clean and standardize. For each strain, a geotaxis score was determined. In separate measurements, twenty to thirty flies of each strain were loaded into a starting tube on the left (see FIG. 1). The maze was set upright in front of a light source on the right, and, after turning on the light, each strain was scored according to the distribution of the flies in the nine collecting tubes on the right. A perfect score for positive geotaxis would be 1, for negative geotaxis, 9, and for an even distribution, 5. The geotaxis measurments were repeated 3-5 times for each strain (see Table 1). […]

Q: With `OCCOCCN1CCN(C(c2ccccc2)c2ccc(Cl)cc2)CC1` (centres unmarked) [hydroxyzine] as the compound, how does the “Effect on geotactic behavior (in words)” value (Canton-S flies fed with the histamine receptor antagonist) read?
A: Extreme negative geotaxis is induced

Q: And the Geotaxis score (wild-type Canton-S flies fed for 2 hr on 20 mg/ml hydroxyzine, score scale 1 = positive geotaxis, 5 = even distribution, 9 = negative geotaxis, N=1 (15-25 flies), untreated Canton-S 5.53)?
A: 8.50
